Experimental data taken from PubChem BioAssay AID248 (DTP/NCI, 2004).
Where “and” joins values, the source holds several entries; their conditions need not be identical. Equal values may be shown once. Toxic doses and inconclusive results are not listed.

Tested on: L1210 leukemia ip in BDF1 mice, survival T/C
Assay: NCI In Vivo Anticancer Drug Screen. Data for tumor model L1210 Leukemia (intraperitoneal) in B6D2F1 (BDF1) mice
Conditions: endpoint: mean survival time, higher = longer survival
Summary of the method: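 Tumor was transplanted into mice, which were then dosed with test compound or vehicle alone. Survival was recorded for each group, and the treated figure was expressed relative to the control figure.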

[1] = dose: 50.0 mg/kg/injection, schedule: Q01DX001 (ip), vehicle: saline
[2] = dose: 100.0 mg/kg/injection, schedule: Q04DX003 (ip), vehicle: saline
[3] = dose: 100.0 mg/kg/injection, schedule: Q04DX002 (ip), vehicle: Klucel (hydroxypropylcellulose) (HPC)
[4] = dose: 200.0 mg/kg/injection, schedule: Q04DX002 (ip), vehicle: Klucel (hydroxypropylcellulose) (HPC)
[5] = dose: 400.0 mg/kg/injection, schedule: Q04DX002 (ip), vehicle: Klucel (hydroxypropylcellulose) (HPC)

In the case of O=C(O)NC1(c2ccccc2)OC1c1ccccc1 (stereo unspecified), the T/C (dose: 50.0 mg/kg/injection, schedule: Q01DX001 (ip), vehicle: saline with Tween-80) is reported as 115 % of control, the T/C (dose: 100.0 mg/kg/injection, schedule: Q01DX001 (ip), vehicle: saline with Tween-80) is reported as 98 % of control and the T/C (dose: 200.0 mg/kg/injection, schedule: Q01DX001 (ip), vehicle: saline with Tween-80) is reported as 94 % of control.

In the case of CC(Cl)CCN1CCCCC1 (stereo unspecified), the T/C [1] is reported as 104 % of control.

In the case of COc1cc(C)c(Cl)c(C)c1C(C)=O, the T/C (dose: 100.0 mg/kg/injection, schedule: Q01DX009 (ip), vehicle: Klucel (hydroxypropylcellulose) (HPC)) is reported as 101 % of control, the T/C (dose: 100.0 mg/kg/injection, schedule: Q04DX003 (ip), vehicle: Klucel (hydroxypropylcellulose) (HPC)) is reported as 95 % of control and the T/C (dose: 200.0 mg/kg/injection, schedule: Q01DX009 (ip), vehicle: Klucel (hydroxypropylcellulose) (HPC)) is reported as 100 % of control. The T/C (dose: 200.0 mg/kg/injection, schedule: Q04DX003 (ip), vehicle: Klucel (hydroxypropylcellulose) (HPC)) was 101 % of control, the T/C (dose: 400.0 mg/kg/injection, schedule: Q01DX009 (ip), vehicle: Klucel (hydroxypropylcellulose) (HPC)) was 101 % of control and the T/C (dose: 400.0 mg/kg/injection, schedule: Q04DX003 (ip), vehicle: Klucel (hydroxypropylcellulose) (HPC)) was 97 % of control.

In the case of CC(C)CNC(=O)Oc1cccc(NC(=O)N(C)C)c1, the T/C (dose: 100.0 mg/kg/injection, schedule: Q04DX003 (ip), vehicle: saline with Tween-80) is reported as 92 % of control, the T/C (dose: 200.0 mg/kg/injection, schedule: Q04DX003 (ip), vehicle: saline with Tween-80) is reported as 94 % of control and the T/C (dose: 400.0 mg/kg/injection, schedule: Q04DX003 (ip), vehicle: saline with Tween-80) is reported as 94 % of control.

CN=C(N)c1ccc(NC(=O)c2ccc(C(=O)Nc3ccc(C(N)=NC)cc3)cc2)cc1 was tested, and the T/C (dose: 1.9 mg/kg/injection, schedule: Q01DX Z (ip), vehicle: methylcellulose (MC)) was 102 % of control, the T/C (dose: 2.0 mg/kg/injection, schedule: Q01DX006 (iv), vehicle: saline) was 104 % of control and the T/C (dose: 2.0 mg/kg/injection, schedule: Q01DX Z (sc), vehicle: saline) was 101 % of control. For the same molecule, the T/C (dose: 2.0 mg/kg/injection, schedule: Q02DX004 (im), vehicle: saline) was 103 % of control, the T/C (dose: 3.75 mg/kg/injection, schedule: Q01DX Z (ip), vehicle: methylcellulose (MC)) was 124 % of control and the T/C (dose: 4.0 mg/kg/injection, schedule: Q01DX006 (iv), vehicle: saline) was 103 % of control. For the same molecule, the T/C (dose: 4.0 mg/kg/injection, schedule: Q01DX Z (sc), vehicle: saline) was 97 % of control, the T/C (dose: 4.0 mg/kg/injection, schedule: Q02DX004 (im), vehicle: saline) was 103 % of control and the T/C (dose: 5.5 mg/kg/injection, schedule: Q01DX Z (ip), vehicle: methylcellulose (MC)) was 177 % of control. The T/C (dose: 8.0 mg/kg/injection, schedule: Q01DX006 (iv), vehicle: saline) was 106 % of control, the T/C (dose: 8.0 mg/kg/injection, schedule: Q01DX010 (oral), vehicle: saline) was 106 % of control and the T/C (dose: 8.0 mg/kg/injection, schedule: Q01DX Z (sc), vehicle: saline) was 94 % of control. The T/C (dose: 8.0 mg/kg/injection, schedule: Q02DX004 (im), vehicle: saline) was 108 % of control, the T/C (dose: 15.0 mg/kg/injection, schedule: Q01DX Z (ip), vehicle: methylcellulose (MC)) was 150 % of control and 156 % of control and the T/C (dose: 16.0 mg/kg/injection, schedule: Q01DX010 (oral), vehicle: saline) was 97 % of control. The T/C (dose: 16.0 mg/kg/injection, schedule: Q01DX Z (sc), vehicle: saline) was 98 % of control, the T/C (dose: 16.0 mg/kg/injection, schedule: Q02DX004 (im), vehicle: saline) was 108 % of control and the T/C (dose: 30.0 mg/kg/injection, schedule: Q01DX Z (ip), vehicle: methylcellulose (MC)) was 171 % of control and 173 % of control. The T/C (dose: 32.0 mg/kg/injection, schedule: Q01DX010 (oral), vehicle: saline) was 97 % of control, the T/C (dose: 42.4 mg/kg/injection, schedule: Q01DX007 (oral), vehicle: carboxymethylcellulose (CMC)) was 100 % of control and the T/C (dose: 60.0 mg/kg/injection, schedule: Q01DX Z (ip), vehicle: methylcellulose (MC)) was 174 % of control. The T/C (dose: 64.0 mg/kg/injection, schedule: Q01DX007 (oral), vehicle: carboxymethylcellulose (CMC)) was 105 % of control, the T/C (dose: 64.0 mg/kg/injection, schedule: Q01DX010 (oral), vehicle: saline) was 103 % of control and the T/C (dose: 96.0 mg/kg/injection, schedule: Q01DX007 (oral), vehicle: carboxymethylcellulose (CMC)) was 103 % of control. For the same molecule, the T/C (dose: 120.0 mg/kg/injection, schedule: Q01DX Z (ip), vehicle: methylcellulose (MC)) was 108 % of control, the T/C (dose: 144.0 mg/kg/injection, schedule: Q01DX007 (oral), vehicle: carboxymethylcellulose (CMC)) was 108 % of control and the T/C (dose: 150.0 mg/kg/injection, schedule: Q01DX Z (oral), vehicle: saline) was 100 % of control. The T/C (dose: 300.0 mg/kg/injection, schedule: Q01DX Z (oral), vehicle: saline) was 93 % of control and the T/C (dose: 600.0 mg/kg/injection, schedule: Q01DX Z (oral), vehicle: saline) was 115 % of control.

In the case of O=c1[nH]nc(-c2ccncc2)s1, the T/C (dose: 20.0 mg/kg/injection, schedule: Q04DX003 (ip), vehicle: saline) is reported as 101 % of control, the T/C (dose: 40.0 mg/kg/injection, schedule: Q04DX003 (ip), vehicle: saline) is reported as 96 % of control and the T/C (dose: 75.0 mg/kg/injection, schedule: Q01DX001 (ip), vehicle: saline) is reported as 94 % of control. The T/C (dose: 75.0 mg/kg/injection, schedule: Q04DX003 (ip), vehicle: saline) was 96 % of control and the T/C [2] was 98 % of control.

With Nc1ncn(C(=S)Nc2ccccc2)n1 the T/C [1] was 102 % of control, the T/C (dose: 100.0 mg/kg/injection, schedule: Q01DX001 (ip), vehicle: saline) was 98 % of control and the T/C (dose: 200.0 mg/kg/injection, schedule: Q01DX001 (ip), vehicle: saline) was 98 % of control. For the same molecule, the T/C (dose: 400.0 mg/kg/injection, schedule: Q01DX001 (ip), vehicle: saline) was 98 % of control.

CC(CO)(CO)Cc1ccccc1 was tested, and the T/C (dose: 100.0 mg/kg/injection, schedule: Q04DX002 (ip), vehicle: saline with Tween-80) was 97 % of control, the T/C (dose: 200.0 mg/kg/injection, schedule: Q04DX002 (ip), vehicle: saline with Tween-80) was 108 % of control and the T/C (dose: 400.0 mg/kg/injection, schedule: Q04DX002 (ip), vehicle: saline with Tween-80) was 120 % of control.

For Cc1ccc(S(=O)(=O)Nc2ccc(OS(=O)(=O)c3ccc(C)cc3)cc2)cc1, the T/C (dose: 100.0 mg/kg/injection, schedule: Q01DX001 (ip), vehicle: carboxymethylcellulose (CMC)) was 108 % of control, the T/C (dose: 200.0 mg/kg/injection, schedule: Q01DX001 (ip), vehicle: carboxymethylcellulose (CMC)) was 100 % of control and the T/C (dose: 400.0 mg/kg/injection, schedule: Q01DX001 (ip), vehicle: carboxymethylcellulose (CMC)) was 100 % of control.

With COc1ccc(C(=O)Nc2cccc3ccccc23)cc1 the T/C (dose: 100.0 mg/kg/injection, schedule: Q01DX009 (ip), vehicle: carboxymethylcellulose (CMC)) was 95 % of control, the T/C [3] was 108 % of control and the T/C (dose: 100.0 mg/kg/injection, schedule: Q04DX002 (ip), vehicle: carboxymethylcellulose (CMC)) was 93 % of control and 97 % of control. For the same molecule, the T/C (dose: 100.0 mg/kg/injection, schedule: Q04DX003 (ip), vehicle: carboxymethylcellulose (CMC)) was 103 % of control, the T/C (dose: 200.0 mg/kg/injection, schedule: Q01DX009 (ip), vehicle: carboxymethylcellulose (CMC)) was 98 % of control and 90 % of control and the T/C [4] was 102 % of control. The T/C (dose: 200.0 mg/kg/injection, schedule: Q04DX002 (ip), vehicle: carboxymethylcellulose (CMC)) was 95 % of control and 103 % of control, the T/C (dose: 200.0 mg/kg/injection, schedule: Q04DX003 (ip), vehicle: carboxymethylcellulose (CMC)) was 103 % of control and the T/C (dose: 400.0 mg/kg/injection, schedule: Q01DX009 (ip), vehicle: carboxymethylcellulose (CMC)) was 93 % of control and 87 % of control. The T/C [5] was 112 % of control, the T/C (dose: 400.0 mg/kg/injection, schedule: Q04DX002 (ip), vehicle: carboxymethylcellulose (CMC)) was 100 % of control and 101 % of control and the T/C (dose: 400.0 mg/kg/injection, schedule: Q04DX003 (ip), vehicle: carboxymethylcellulose (CMC)) was 97 % of control.

For CN(C)CN(C)C, the T/C (dose: 25.0 mg/kg/injection, schedule: Q01DX001 (ip), vehicle: saline) was 98 % of control, the T/C (dose: 25.0 mg/kg/injection, schedule: Q01DX009 (ip), vehicle: saline) was 89 % of control and the T/C (dose: 25.0 mg/kg/injection, schedule: Q04DX003 (ip), vehicle: saline) was 100 % of control. The T/C [1] was 102 % of control, the T/C (dose: 50.0 mg/kg/injection, schedule: Q01DX009 (ip), vehicle: saline) was 100 % of control and the T/C (dose: 50.0 mg/kg/injection, schedule: Q04DX003 (ip), vehicle: saline) was 100 % of control. For the same molecule, the T/C [2] was 102 % of control.

For CN(C)C(=S)Oc1c([N+](=O)[O-])cc([N+](=O)[O-])cc1C(C)(C)C, the T/C (dose: 25.0 mg/kg/injection, schedule: Q04DX002 (ip), vehicle: saline with Tween-80) was 86 % of control and the T/C (dose: 50.0 mg/kg/injection, schedule: Q04DX002 (ip), vehicle: saline with Tween-80) was 86 % of control.

O=C1c2ccccc2C(=O)c2cc(Cl)ccc21 was tested, and the T/C [3] was 95 % of control, the T/C [4] was 98 % of control and the T/C [5] was 98 % of control.
